Experimental findings from patent US9867376B2, “Herbicidal compositions comprising N-tetrazol-5-yl)- or N-(triazol-5-yl)arylcarboxamides” (priority 2012, dated 2018) are described below.

Common to all, as to assay type: in vivo
In test [1] the test system is Brachiaria platyphylla. The test is described as follows: Greenhouse trial, post-emergence, visual herbicidal effect. Conditions: alone. Put shortly:
(§1)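 Post-emergence spray, 300 l/ha, herbicides solo and in mixture; weeds in sandy loam, greenhouse, optimum conditions. Visual rating vs untreated, 0–100% (100% = complete die-off). Colby expected value E^C = A+B−A×B/100; Δ = measured minus expected.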

Test [2] has as its system Xanthium strumarium. The description is as above. Conditions: Table 5-56, greenhouse, alone, 1 g of a.i./ha. Put shortly:
as §1

The subject of test [3] is Alopecurus myosuroides. The test is described as follows: Field trial, post-emergence, visual scoring. Conditions: Table 5-60, field, alone.
The test system of test [4] is Euphorbia heterophylla. The test is described as follows: Field trial, post-emergence, visual scoring. Conditions: Table 5-63, field, alone, 25 g of a.i./ha.
In test [5] the test system is Centaurea cyanis. The test is described as follows: Field trial, post-emergence, visual scoring. Conditions: Table 5-59, field, alone, 25 g of a.i./ha.
In test [6] the test system is Lolium multiflorum. The test is described as follows: Field trial, post-emergence, visual scoring. Conditions: Table 5-58, field, alone, 25 g of a.i./ha.
Test [7] relates to Galium aparine. The test is described as follows: Field trial, post-emergence, visual scoring. Conditions: alone, 25 g of a.i./ha.
In test [8] the test system is Veronica hederifolia. The test is described as follows: Greenhouse trial, post-emergence, visual herbicidal effect. Conditions: Table 5-89, greenhouse, alone. Put shortly:
as §1

In test [9] the test system is Papaver rhoeas. Described as above. Conditions: alone. Put shortly:
as §1

For test [10], the system named is Polygonum convolvulus. Described as above. Conditions: alone. In a few lines: as §1
Test [11] deals with Avena fatua. The description is as above. Conditions: alone. In a few lines:
as §1

Test [12] deals with Centaurea cyanis. The test is described as above. Conditions: alone. In a few lines:
as §1

For test [13], the system named is Phalaris minor. The description is as above. Conditions: Table 5-03, greenhouse, alone, 25 g of a.i./ha. In a few lines:
as §1

The subject of test [14] is Viola tricolor. The test is described as above. Conditions: alone. In a few lines:
as §1

Molecules are shown by their SMILES.

As to `COCc1c(S(C)(=O)=O)ccc(C(=O)Nc2nnnn2C)c1Cl` [A1-60], the “Activity [%] against Brachiaria platyphylla” value in test [1] (Table 5-55, greenhouse, 1 g of a.i./ha) was 0%; in [1] (Table 5-57, greenhouse, 2 g of a.i./ha) it was 40%. Moreover, the “Activity [%] against Xanthium strumarium” value in test [2] is 25%. For the same molecule, the “Activity [%] against Alopecurus myosuroides” value in [3] (25 g of a.i./ha) stood at 15%. Also, in test [4], the “Activity [%] against Euphorbia heterophylla” value is 30%. The “Activity [%] against Centaurea cyanis” value in test [5] is 45%. For the same molecule, in test [6], the “Activity [%] against Lolium multiflorum” value is given as 15%. The “Activity [%] against Galium aparine” value is listed as 30% in test [7] (Table 5-61, field) and 73% in test [7] (Table 5-62, field).
Turning to `Cn1nnnc1NC(=O)c1ccc(S(C)(=O)=O)c(OCC2CC2)c1Cl` [A1-74], the “Activity [%] against Veronica hederifolia” value in test [8] (3 g of a.i./ha) amounted to 40%. In addition, the “Activity [%] against Papaver rhoeas” value in [9] (Table 5-86, greenhouse, 3 g of a.i./ha) was 30%; in test [9] (Table 5-87, greenhouse, 3 g of a.i./ha), 40%. Also, in test [10] (Table 5-88, greenhouse, 3 g of a.i./ha), the “Activity [%] against Polygonum convolvulus” value came to 0%.
`CCOC(=O)[C@@H](C)Oc1ccc(Oc2nc3ccc(Cl)cc3o2)cc1` [fenoxaprop-P-ethyl]: the “Activity [%] against Avena fatua” value in test [11] (Table 5-01, greenhouse, 25 g of a.i./ha) was determined as 0%; in [11] (Table 5-05, greenhouse, 12.5 g of a.i./ha), 0%; in test [11] (Table 5-07, greenhouse, 12.5 g of a.i./ha) it was 0%; in [11] (Table 5-49, greenhouse, 25 g of a.i./ha) it was 0%. In test [12] (Table 5-50, greenhouse, 25 g of a.i./ha), the “Activity [%] against Centaurea cyanis” value is reported as 0%. In test [13], the “Activity [%] against Phalaris minor” value was found to be 15%. For the same molecule, in test [9] (Table 5-06, greenhouse, 12.5 g of a.i./ha), the “Activity [%] against Papaver rhoeas” value is reported as 20%. Moreover, the “Activity [%] against Viola tricolor” value in [14] (Table 5-02, greenhouse, 25 g of a.i./ha) came out at 0%; in [14] (Table 5-09, greenhouse, 12.5 g of a.i./ha) it was 15%. In addition, the “Activity [%] against Polygonum convolvulus” value in test [10] (Table 5-08, greenhouse, 25 g of a.i./ha) turned out to be 0%. Moreover, the “Activity [%] against Alopecurus myosuroides” value in test [3] (83 g of a.i./ha) is reported as 30%.
Regarding `CCc1cc(C)cc(CC)c1-c1c(OC(=O)C(C)(C)C)n2n(c1=O)CCOCC2` [pinoxaden], the “Activity [%] against Veronica hederifolia” value in test [8] (10 g of a.i./ha) came out at 20%. In addition, the “Activity [%] against Centaurea cyanis” value in [12] (Table 5-38, greenhouse, 5 g of a.i./ha) is reported as 0%; in test [12] (Table 5-40, greenhouse, 5 g of a.i./ha) it was 15%. Besides, the “Activity [%] against Papaver rhoeas” value was 0% in test [9] (Table 5-39, greenhouse, 5 g of a.i./ha); 10% in test [9] (Table 5-41, greenhouse, 10 g of a.i./ha); 0% in test [9] (Table 5-86, greenhouse, 10 g of a.i./ha); 50% in [9] (Table 5-87, greenhouse, 10 g of a.i./ha). The “Activity [%] against Viola tricolor” value in test [14] (Table 5-42, greenhouse, 10 g of a.i./ha) is listed as 0%. Also, the “Activity [%] against Polygonum convolvulus” value in test [10] (Table 5-88, greenhouse, 10 g of a.i./ha) is reported as 0%.
